Test results reported in patent US12325697B2 (Nimbus Clio, Inc., priority 2021, dated 2025).
Structures can show the parent of a compound that is named as a salt.

Key:
[1] = test system: Jurkat (clone E6-1) cells, NFAT luciferase reporter; assay: Jurkat Reporter Assay (NFAT Luciferase); assay type: cell-based; conditions: Homo sapiens, anti-CD3 stimulation, 6 hr, read-out: Jurkat NFAT EC50
[2] = target: Recombinant human Cbl-b (aa 36-427) (Homo sapiens (Human), UniProt Q13191); assay: Cbl-b Biochemical Assay (TR-FRET); conditions: read-out: TR-FRET hCbl-b IC50
Chain of Recombinant human Cbl-b (aa 36-427) (Q13191 36-427): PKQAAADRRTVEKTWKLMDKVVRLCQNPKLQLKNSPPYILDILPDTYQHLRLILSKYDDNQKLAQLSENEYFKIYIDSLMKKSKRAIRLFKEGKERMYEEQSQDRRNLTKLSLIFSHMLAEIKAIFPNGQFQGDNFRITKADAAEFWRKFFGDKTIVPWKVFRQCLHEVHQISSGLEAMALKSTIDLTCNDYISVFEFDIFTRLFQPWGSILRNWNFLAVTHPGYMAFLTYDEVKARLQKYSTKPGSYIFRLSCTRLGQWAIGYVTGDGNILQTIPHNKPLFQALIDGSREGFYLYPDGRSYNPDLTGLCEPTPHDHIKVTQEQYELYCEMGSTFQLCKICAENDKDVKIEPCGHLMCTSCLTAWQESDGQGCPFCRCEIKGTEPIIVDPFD
Method in brief: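 Two-step TR-FRET: 6 nM biotinylated Cbl-b preincubated 30-60 min with compound, then 60 min at RT with 1-2.5 nM Src-Zap70 and 0.5 mM ATP in HEPES pH 7.0 buffer, 1% DMSO. Stopped with 5 mM EDTA plus 100 nM UBE2D2-Ub-FL-BODIPY and 1 nM streptavidin-Tb, 60 min; 520 nm signal; IC50 from 4-parameter fit.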

Row | SMILES | EC50 [1] [nM] | IC50 [2] [nM]
1 | Cn1cnnc1-c1cc(C#N)ccc1-c1cc(C2CC2)nc(N2Cc3c(cccc3C(F)(F)F)C2=O)c1 [AEG-3, 4-{2-Cyclopropyl-6-[1-oxo-4-(trifluoromethyl)-3H-isoindol-2-yl]pyridin-4-yl}-3-(4-methyl-1,2,4-triazol-3-yl)benzonitrile] | 200 to 1000 | ≤ 200
2 | CCNc1cc(-c2c(-c3nncn3C)cnn2C)cc(N2Cc3c(cc(CN(C)CC4(OC)CCC4)cc3C(F)(F)F)C2=O)n1 [AEK-3, 2-(6-(Ethylamino)-4-(1-methyl-4-(4-methyl-4H-1,2,4-triazol-3-yl)-1H-pyrazol-5-yl)pyridin-2-yl)-6-((((1-methoxycyclobutyl)methyl)(methyl)amino)methyl)-4-(trifluoromethyl)isoindolin-1-one] | 200 to 1000 | ≤ 200
3 | CCNc1cc(-c2ccc(C#N)cc2-c2nncn2C)cc(N2Cc3c(cc(N4CCCC4)cc3C(F)(F)F)C2=O)n1 [AEP-2, 4-[2-(Ethylamino)-6-[1-oxo-6-(pyrrolidin-1-yl)-4-(trifluoromethyl)-3H-isoindol-2-yl]pyridin-4-yl]-3-(4-methyl-1,2,4-triazol-3-yl)benzonitrile] | 10000 to 50000 | 200 to 1000
4 | COc1ccc2c(c1)CN(c1cc(-c3ccccc3-c3nncn3C)cc(C3CC3)n1)C2=O [AER-1] | 10000 to 50000 | ≤ 200
5 | Cn1cnnc1-c1cc(C#N)ccc1-c1ccnc(N2Cc3c(cc(CO)cc3C(F)(F)F)C2=O)c1 [AEX-2, 4-{2-[6-(Hydroxymethyl)-1-oxo-4-(trifluoromethyl)-3H-isoindol-2-yl]pyridin-4-yl}-3-(4-methyl-1,2,4-triazol-3-yl) benzonitrile] | 1000 to 10000 | ≤ 200
6 | CCNc1cc(-c2ccc(OC)cc2-c2nncn2C)cc(N2Cc3c(cccc3C(F)(F)F)C2=O)n1 [AFB-8, 2-[6-(Ethylamino)-4-[4-methoxy-2-(4-methyl-1,2,4-triazol-3-yl)phenyl]pyridin-2-yl]-4-(trifluoromethyl)-3H-isoindol-1-one] | 200 to 1000 | ≤ 200
7 | CCNc1cc(-c2ccc(C(=O)OC)cc2-c2nncn2C)cc(N2Cc3c(cccc3C(F)(F)F)C2=O)n1 [AFC-1, Methyl 4-[2-(ethylamino)-6-[1-oxo-4-(trifluoromethyl)-3H-isoindol-2-yl]pyridin-4-yl]-3-(4-methyl-1,2,4-triazol-3-yl) benzoate] | 10000 to 50000 | 1000 to 10000
8 | CCNc1cc(-c2ccc(CO)cc2-c2nncn2C)cc(N2Cc3c(cccc3C(F)(F)F)C2=O)n1 [AFD-1, 2-[6-(ethylamino)-4-[4-(hydroxymethyl)-2-(4-methyl-1,2,4-triazol-3-yl)phenyl]pyridin-2-yl]-4-(trifluoromethyl)-3H-isoindol-1-one] | 10000 to 50000 | ≤ 200
9 | CCNc1cc(-c2c(-c3nncn3C)cnn2C)cc(N2Cc3c(cc(COCC4(F)CCC4)cc3C(F)(F)F)C2=O)n1 [AFP-2, 2-[6-(Ethylamino)-4-[2-methyl-4-(4-methyl-1,2,4-triazol-3-yl)pyrazol-3-yl]pyridin-2-yl]-6-{[(1-fluorocyclobutyl)methoxy]methyl}-4-(trifluoromethyl)-3H-isoindol-1-one] | 200 to 1000 | ≤ 200
10 | Cc1ccc2c(c1)C(=O)N(c1cc(-c3ccc(F)cc3-c3nncn3C)cc(C(C)C)n1)C2 [AFY-1, 2-(4-(4-fluoro-2-(4-methyl-4H-1,2,4-triazol-3-yl)phenyl)-6-isopropylpyridin-2-yl)-6-methylisoindolin-1-one] | 10000 to 50000 | 1000 to 10000
11 | CCNc1cc(-c2nn(CC(C)C)cc2-c2nncn2C)cc(N2Cc3c(cccc3C(F)(F)F)C2=O)n1 [AGX-8, 2-[6-(Ethylamino)-4-[4-(4-methyl-1,2,4-triazol-3-yl)-1-(2-methylpropyl)pyrazol-3-yl]pyridin-2-yl]-4-(trifluoromethyl)-3H-isoindol-1-one] | 10000 to 50000 | 10000 to 50000
12 | CN(Cc1cc2c(c(C(F)(F)F)c1)CN(c1cc(-c3ccc(C#N)cc3-c3nncn3C)cc(C3CC3)n1)C2=O)C(=O)OC(C)(C)C [AGY-3, tert-Butyl N-[(2-{4-[4-cyano-2-(4-methyl-1,2,4-triazol-3-yl)phenyl]-6-cyclopropylpyridin-2-yl}-3-oxo-7-(trifluoromethyl)-1H-isoindol-5-yl)methyl]-N-methylcarbamate] | 200 to 1000 | ≤ 200
13 | CCCn1cc(-c2nncn2C)c(-c2cc(NCC)nc(N3Cc4c(cccc4C(F)(F)F)C3=O)c2)n1 [AHD-9, 2-[6-(Ethylamino)-4-[4-(4-methyl-1,2,4-triazol-3-yl)-1-propylpyrazol-3-yl]pyridin-2-yl]-4-(trifluoromethyl)-3H-isoindol-1-one] | 10000 to 50000 | 10000 to 50000
14 | CCOc1cc(-c2ccc(C#N)cc2-c2nncn2C)cc(N2Cc3c(cc(COCCNC)cc3C(F)(F)F)C2=O)n1 [AHE-4] | 1000 to 10000 | ≤ 200
15 | Cn1cnnc1-c1cc(C#N)ccc1-c1cc(C2CC2)nc(N2Cc3c(cc(COCCO)cc3C(F)(F)F)C2=O)c1 [AHF-4, 4-(2-Cyclopropyl-6-{6-[(2-hydroxyethoxy)methyl]-1-oxo-4-(trifluoromethyl)-3H-isoindol-2-yl}pyridin-4-yl)-3-(4-methyl-1,2,4-triazol-3-yl)benzonitrile] | < 200 | ≤ 200
16 | C[C@H](Cc1nncn1C)c1cc(Cl)nc(N2Cc3c(cccc3C(F)(F)F)C2=O)c1 [AHJ-11, (R)-2-(6-Chloro-4-(1-(4-methyl-4H-1,2,4-triazol-3-yl)propan-2-yl)pyridin-2-yl)-4-(trifluoromethyl)isoindolin-1-one] | 10000 to 50000 | 1000 to 10000
17 | C[C@H](Cc1nncn1C)c1cc(NS(C)(=O)=O)nc(N2Cc3c(cccc3C(F)(F)F)C2=O)c1 [AHK-1, N-[4-[(2R)-1-(4-Methyl-1,2,4-triazol-3-yl)propan-2-yl]-6-[1-oxo-4-(trifluoromethyl)-3H-isoindol-2-yl]pyridin-2-yl]methanesulfonamide] | 10000 to 50000 | 200 to 1000
18 | C[C@@H](Cc1nncn1C)c1cc(NS(C)(=O)=O)nc(N2Cc3c(cccc3C(F)(F)F)C2=O)c1 [AHL-8, N-[4-[(2S)-1-(4-Methyl-1,2,4-triazol-3-yl)propan-2-yl]-6-[1-oxo-4-(trifluoromethyl)-3H-isoindol-2-yl]pyridin-2-yl]methanesulfonamide] | 10000 to 50000 | 10000 to 50000
19 | CCOc1cc(N2Cc3c(cccc3C(F)(F)F)C2=O)cc(C2(Cc3nncn3C)COC2)c1 [AHM-12, 2-(3-Ethoxy-5-[3-[(4-methyl-1,2,4-triazol-3-yl)methyl]oxetan-3-yl]phenyl)-4-(trifluoromethyl)-3H-isoindol-1-one] | 1000 to 10000 | 200 to 1000
20 | CCNc1cc(-c2ccccc2-c2nncn2C)cc(N2Cc3c(cc(CN4CC[C@@H](O)C4)cc3C(F)(F)F)C2=O)n1 [AT-1, (R)-2-(6-(Ethylamino)-4-(2-(4-methyl-4H-1,2,4-triazol-3-yl)phenyl)pyridin-2-yl)-6-((3-hydroxypyrrolidin-1-yl)methyl)-4-(trifluoromethyl)isoindolin-1-one] | 200 to 1000 | ≤ 200
21 | CCNc1cc(-c2ccccc2-c2nncn2C)cc(N2Cc3c(cc(CN4CCC(F)(F)[C@H](C)C4)cc3C(F)(F)F)C2=O)n1 [AU-2, (R)-6-((4,4-Difluoro-3-methylpiperidin-1-yl)methyl)-2-(6-(ethylamino)-4-(2-(4-methyl-4H-1,2,4-triazol-3-yl)phenyl)pyridin-2-yl)-4-(trifluoromethyl)isoindolin-1-one] | 200 to 1000 | ≤ 200
22 | Cn1cnnc1-c1ccccc1-c1cccc(N2Cc3c(cc(CO[C@@H]4CCC[C@@H]4O)cc3C(F)(F)F)C2=O)c1 [AV-3, 6-((((1R,2S)-2-Hydroxycyclopentyl)oxy)methyl)-2-(2′-(4-methyl-4H-1,2,4-triazol-3-yl)-[1,1′-biphenyl]-3-yl)-4-(trifluoromethyl)isoindolin-1-one] | 1000 to 10000 | 200 to 1000
23 | O=C1c2cc(CNCC3(O)CCC3)cc(C(F)(F)F)c2CN1c1ccccc1 [AX-3, 6-((((1-Hydroxycyclobutyl)methyl)amino)methyl)-2-phenyl-4-(trifluoromethyl)isoindolin-1-one] | 10000 to 50000 | 10000 to 50000
24 | Cn1cnnc1-c1ccccc1-c1cccc(N2Cc3c(cc(Br)cc3C(F)(F)F)C2=O)c1 [AY-1, 6-Bromo-2-(2′-(4-methyl-4H-1,2,4-triazol-3-yl)-[1,1′-biphenyl]-3-yl)-4-(trifluoromethyl)isoindolin-1-one] | 10000 to 50000 | 200 to 1000
25 | CCNc1cc(-c2ccccc2-c2nncn2C)cc(N2Cc3c(cc(COC4CCNCC4)cc3C(F)(F)F)C2=O)n1 [BA-4, 2-(6-(Ethylamino)-4-(2-(4-methyl-4H-1,2,4-triazol-3-yl)phenyl)pyridin-2-yl)-6-((piperidin-4-yloxy)methyl)-4-(trifluoromethyl)isoindolin-1-one, HCl] | 1000 to 10000 | ≤ 200
26 | Cn1cnnc1-c1ccccc1-c1cccc(N2Cc3c(cc(COC4CCN(C(=O)OC(C)(C)C)CC4)cc3C(F)(F)F)C2=O)c1 [BB-1, tert-Butyl 4-((2-(2′-(4-methyl-4H-1,2,4-triazol-3-yl)-[1,1′-biphenyl]-3-yl)-3-oxo-7-(trifluoromethyl)isoindolin-5-yl)methoxy)piperidine-1-carboxylate] | 10000 to 50000 | 200 to 1000
27 | CN1CCC(OCc2cc3c(c(C(F)(F)F)c2)CN(c2cccc(-c4ccccc4-c4nncn4C)c2)C3=O)CC1 [BC-4, 2-(2′-(4-Methyl-4H-1,2,4-triazol-3-yl)-[1,1′-biphenyl]-3-yl)-6-(((1-methylpiperidin-4-yl)oxy)methyl)-4-(trifluoromethyl)isoindolin-1-one] | 1000 to 10000 | 200 to 1000
